Source: patent US20260078130A1, “NAMPT MODULATORS, PREPARATIONS, AND USES THEREOF” (SIRONAX LTD., priority 2022, published 2026)
Read-outs that look alike come from different tables or passages of the source.

Target: T1, human enzyme NAMPT (full length) (Homo sapiens, UniProt P43490)
T1 construct: human enzyme NAMPT (full length)
Test: NMN fluorescence biochemical assay (stimulation of NMN synthesis by NAMPT)
Conditions: for EC50: concentration giving half-maximal activation, read-out: Enzymatic EC50; for Enzymatic Emax: fold change of maximal activation compared to DMSO
Method: Certain compounds described herein were assayed for their ability to stimulate the synthesis of nicotinamide mononucleotide (NMN) by human enzyme NAMPT (full length). The enzymatic assay was performed in a 384-well plate using a TMD buffer (50 mM Tris-HCl, 10 mM MgCl2, 2 mM DTT, pH 7.5). Purified NAMPT (100 nM) was pre-incubated with 0.2 μL. DMSO solution of the test compound (with a series of concentrations) in 10 μL TMD buffer for 15 min at 37° C. The reaction was initiated by adding 10 μL solution of NAM (50 μM), PRPP (100 μM), and ATP (4 mM) in TMD buffer. After 1 h of incubation at 37 T, an aliquot (20 μL) of the NMN-containing sample was sequentially mixed with 5 μL of 20% acetophenone (in DMSO) and 5 μL of 2M KOH. The mixture was placed on ice for 10 min. Next, 22.5 μL of 100% formic acid was added to each sample, vortexed, and then incubated at 37° C. for 20 min. Fluorescence (Ex/Em=382/445 nm) was measured using an Envision plate reader. The potency measurements for the test compounds were quantified and represented as EC50 (concentration of a compound that gives half-maximal activation) and Emax (fold change of a compound's maximal activation compared to DMSO).

[1] = NMN synthesis by purified human NAMPT (100 nM)
[2] = NMN fluorescence assay, purified human NAMPT 100 nM

T1 sequence (P43490 whole entry): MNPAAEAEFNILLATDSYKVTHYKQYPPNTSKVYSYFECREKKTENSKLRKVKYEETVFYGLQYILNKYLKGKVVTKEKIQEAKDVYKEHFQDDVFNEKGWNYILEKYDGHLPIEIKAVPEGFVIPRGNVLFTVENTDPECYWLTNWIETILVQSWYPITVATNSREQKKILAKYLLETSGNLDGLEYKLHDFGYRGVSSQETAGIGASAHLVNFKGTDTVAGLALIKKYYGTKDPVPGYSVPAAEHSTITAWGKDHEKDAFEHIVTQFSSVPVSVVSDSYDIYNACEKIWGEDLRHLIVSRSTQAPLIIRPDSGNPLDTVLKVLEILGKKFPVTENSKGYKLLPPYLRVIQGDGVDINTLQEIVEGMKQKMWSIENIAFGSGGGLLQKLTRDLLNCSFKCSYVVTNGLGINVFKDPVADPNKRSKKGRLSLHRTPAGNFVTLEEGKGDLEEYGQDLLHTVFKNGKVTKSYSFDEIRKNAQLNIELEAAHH

| EC50 [1] [µM] | Enzymatic Emax | EC50 [2] [µM] | Compound |
| --- | --- | --- | --- |
| ≥ 5 | C (2≥C) | – | Cn1ncc(Cl)c1C[C@@H]1c2ccccc2C(=O)N1C/C=C/c1c[nH]nn1 [Compound 313, (R,E)-2-(3-(1H-1,2,3-triazol-4-yl)allyl)-3-((4-chloro-1-methyl-1H-pyrazol-5-yl)methyl)isoindolin-1-one] |
| – | C (2≥C) | ≥ 5 | Cn1c(CC2c3ccccc3C(=O)N2CC2CC3(CNC(=O)O3)C2)ccc(Cl)c1=O (stereo not drawn) [Compound 472, 2-((1-((5-chloro-1-methyl-6-oxo-1,6-dihydropyridin-2-yl)methyl)-3-oxoisoindolin-2-yl)methyl)-5-oxa-7-azaspiro[3.4]octan-6-one] |
| – | B (3≥B>2) | ≥ 5 | O=C1c2ccccc2C(Cc2ncccc2Br)N1Cc1ccn2c(CO)nnc2c1 (stereo not drawn) [Compound 323, 3-((3-bromopyridin-2-yl)methyl)-2-((3-(hydroxymethyl)-[1,2,4]triazolo[4,3-a]pyridin-7-yl)methyl)isoindolin-1-one] |
| – | C (2≥C) | ≥ 5 | Cn1ncc(Cl)c1CC1c2ccccc2C(=O)N1Cc1ccc2c(cnn2C)c1 (stereo not drawn) [Compound 586, 3-((4-chloro-1-methyl-1H-pyrazol-5-yl)methyl)-2-((1-methyl-1H-indazol-5-yl)methyl)isoindolin-1-one] |
| ≥ 5 | B (3≥B>2) | – | CC1c2cccc(-c3cccnc3)c2C(=O)N1Cc1ccc2[nH]c(=O)oc2c1 (stereo not drawn) [Compound 244, 6-((1-methyl-3-oxo-4-(pyridin-3-yl)isoindolin-2-yl)methyl)benzo[d]oxazol-2(3H)-one] |
| – | C (2≥C) | < 0.5 | O=C1c2ccccc2C(Cc2ncccc2Br)N1Cc1ccc(O)cc1 (stereo not drawn) [Compound 429, 3-((3-bromopyridin-2-yl)methyl)-2-(4-hydroxybenzyl)isoindolin-1-one] |
| – | C (2≥C) | ≥ 5 | O=C1N[C@H]2CCC(CN3C(=O)c4ccccc4C3Cc3ncccc3Br)C[C@@H]2O1 (relative stereo) [Compound 466, trans-6-((1-((3-bromopyridin-2-yl)methyl)-3-oxoisoindolin-2-yl)methyl)hexahydrobenzo[d]oxazol-2(3H)-one] |
| – | B (3≥B>2) | 0.5 to 5 | [2H]C([2H])(C1CC2(CNC(=O)O2)C1)N1C(=O)c2ccccc2C1Cc1c(Cl)cnn1C (stereo not drawn) [Compound 643, 2-((1-((4-chloro-1-methyl-1H-pyrazol-5-yl)methyl)-3-oxoisoindolin-2-yl)methyl-d)-5-oxa-7-azaspiro[3.4]octan-6-one] |
| 0.5 to 5 | A (A>3) | – | COc1ccc2c(c1)C(=O)N(Cc1ccc(O)cc1)C2=O [Compound 30, 2-(4-hydroxybenzyl)-5-methoxyisoindoline-1,3-dione] |
| – | C (2≥C) | ≥ 5 | Cn1c(CC2c3ccccc3C(=O)N2CC2CC3(CNC(=O)O3)C2)cccc1=O (stereo not drawn) [Compound 494, 2-((1-((1-methyl-6-oxo-1,6-dihydropyridin-2-yl)methyl)-3-oxoisoindolin-2-yl)methyl)-5-oxa-7-azaspiro[3.4]octan-6-one] |
| ≥ 5 | C (2≥C) | – | O=C1c2ccccc2C(Cc2ncccc2Br)N1Cc1ccc2c(c1)nnn2O (stereo not drawn) [Compound 288, 3-((3-bromopyridin-2-yl)methyl)-2-((1-hydroxy-1H-benzo[d][1,2,3]triazol-5-yl)methyl) isoindolin-1-one] |
| ≥ 5 | B (3≥B>2) | – | CNC(=O)c1ccc2c(c1)C(C)N(Cc1ccc3[nH]c(=O)oc3c1)C2=O (stereo not drawn) [Compound 92, N,3-dimethyl-1-oxo-2-((2-oxo-2,3-dihydrobenzo[d]oxazol-6-yl)methyl)isoindoline-5-carboxamide] |
| ≥ 5 | B (3≥B>2) | – | Cc1cc(CC2c3ccccc3C(=O)N2Cc2ccc3[nH]c(=O)oc3c2)ccn1 (stereo not drawn) [Compound 179, 6-((1-((2-methylpyridin-4-yl)methyl)-3-oxoisoindolin-2-yl)methyl)benzo[d]oxazol-2(3H)-one] |
| – | B (3≥B>2) | ≥ 5 | Cn1ncc(Cl)c1CC1c2cccc(CC#N)c2C(=O)N1CC1CC2(CNC(=O)O2)C1 (stereo not drawn) [Compound 432, 2-(1-((4-chloro-1-methyl-1H-pyrazol-5-yl)methyl)-3-oxo-2-((6-oxo-5-oxa-7-azaspiro[3.4]octan-2-yl)methyl)isoindolin-4-yl)acetonitrile] |
| 0.5 to 5 | B (3≥B>2) | – | N#Cc1cccc(CC2c3ccccc3C(=O)N2Cc2ccc3[nH]c(=O)oc3c2)c1F (stereo not drawn) [Compound 204, 2-fluoro-3-((3-oxo-2-((2-oxo-2,3-dihydrobenzo[d]oxazol-6-yl)methyl)isoindolin-1-yl)methyl)benzonitrile] |
| ≥ 5 | B (3≥B>2) | – | O=C1c2ccccc2C(Cc2ncccc2Br)N1Cc1ccn2cnnc2c1 (stereo not drawn) [Compound 239, 2-([1,2,4]triazolo[4,3-a]pyridin-7-ylmethyl)-3-((3-bromopyridin-2-yl)methyl)isoindolin-1-one] |
| ≥ 5 | A (A>3) | – | N#CC1c2ccccc2C(=O)N1Cc1ccc(O)cc1 (stereo not drawn) [Compound 28, 2-(4-hydroxybenzyl)-3-oxoisoindoline-1-carbonitrile] |
| – | B (3≥B>2) | ≥ 5 | Cn1ncc(Cl)c1CC1c2ccccc2C(=O)N1CC1CC(=O)C1 (stereo not drawn) [Compound 556, 3-((4-chloro-1-methyl-1H-pyrazol-5-yl)methyl)-2-((3-oxocyclobutyl)methyl)isoindolin-1-one] |
| – | B (3≥B>2) | 0.5 to 5 | CC(=O)c1ccc(CN2C(=O)c3ccccc3C2Cc2c(Cl)cnn2C)cc1 (stereo not drawn) [Compound 584, 2-(4-acetylbenzyl)-3-((4-chloro-1-methyl-1H-pyrazol-5-yl)methyl)isoindolin-1-one] |
| – | C (2≥C) | ≥ 5 | COc1ncc(CN2C(=O)c3ccccc3C2Cc2c(Cl)cnn2C)cc1F (stereo not drawn) [Compound 532, 3-((4-chloro-1-methyl-1H-pyrazol-5-yl)methyl)-2-((5-fluoro-6-methoxypyridin-3-yl)methyl)isoindolin-1-one] |
| – | C (2≥C) | 0.5 to 5 | N#Cc1nc2cc(CN3C(=O)c4ccccc4C3Cc3ncccc3Br)ccc2[nH]1 (stereo not drawn) [Compound 366, 5-((1-((3-bromopyridin-2-yl)methyl)-3-oxoisoindolin-2-yl)methyl)-1H-benzo[d]imidazole-2-carbonitrile] |
| – | C (2≥C) | ≥ 5 | Cc1ccc(CN2C(=O)c3ccccc3C2Cc2c(Cl)cnn2C)cc1 (stereo not drawn) [Compound 503, 3-((4-chloro-1-methyl-1H-pyrazol-5-yl)methyl)-2-(4-methylbenzyl)isoindolin-1-one] |

| Compound | EC50 [1] [µM] | Enzymatic Emax | EC50 [2] [µM] |
| --- | --- | --- | --- |
| Cn1ncc(Cl)c1CC1c2ccccc2C(=O)N1Cc1ccccc1 (stereo not drawn) [Compound 502, 2-benzyl-3-((4-chloro-1-methyl-1H-pyrazol-5-yl)methyl)isoindolin-1-one] | – | C (2≥C) | ≥ 5 |
| Cn1ncc(Cl)c1CC1c2ccccc2C(=O)N1CCc1ccc(=O)[nH]c1 (stereo not drawn) [Compound 636, 3-((4-chloro-1-methyl-1H-pyrazol-5-yl)methyl)-2-(2-(6-oxo-1,6-dihydropyridin-3-yl)ethyl)isoindolin-1-one] | – | C (2≥C) | ≥ 5 |
